According to patent US5736565A, “Therapeutic compounds suitable for the treatment of diseases connected with glutathione deficiency, process for their preparation, and pharmaceutical compositions containing same” (Prospa B.V., priority 1992, dated 1998):
Values joined by “and” are separate entries in the source; they are usually repeats but may differ in a detail not shown here. Identical values can stand only once.

Legend:
hepatic GSH [1] = experiment: Test No. 1: protection from ethanol acute administration, hepatic GSH content; format: in vivo, male albino Wistar rats; parameters: GSH Content: unit not given beside the values; settings: liver; ethanol 3 g/kg i.p.; test substance 50 mg/kg
Protocol: Protection from ethanol acute administration […] Male albino Wistar rats weighing between 180 and 230 g were used. All animals were fasted for 24 hours prior to administration of isotonic solution, ethanol or ethanol combined with the test substances. As concerns the test substances, rats were intraperitoneally (i.p.) injected with compound of formula I (R=CH3) at doses of 10, 30, and 50 mg/kg and, for purposes of comparison, with the single constituents of compound (I) (R=CH3), […] (O-PRO) and L-cysteine (CIS), both at a 50 mg/kg dose. One hour after administration of the test substance, ethanol was injected i.p. at the dose of 3 g/kg. Thirty minutes later, the animals were sacrificed by decapitation and their liver was excised. […] Orwar et al., J. Chromatrogr., 556, 39-55 (1991).

hepatic GSH [2] = experiment: Test No. 4: dichloropropane (DCP) intoxication in vivo, hepatic GSH; parameters: species or system rat; settings: for normalization of hepatic GSH (in words): DCP-treated rats
Protocol: (§1) A test was carried out in vivo on four groups of four rats each, using, as a toxic substance, dichloropropane (DCP), the main constituent of several solvents. DCP is noxious both by ingestion and inhalation and has a notable toxicity to the liver, mediated by an almost total depletion of thiol groups, including those of GSH.
(§2) The experimental model involves the study of the effect of DCP toxicity in the rat, in respect of glutathione (GSH) concentration in the main target tissue: the liver.
(§3) Tests were carried out on four groups of rats. The first group of animals was administered 2 ml DCP/kg dissolved in oil (40% v/v) per os. Twenty-four hours after DCP administration, blood samples were taken for SGPT measurement, while the animals were sacrificed; small portions of liver were then excised and immediately deproteinized by homogenization in 6% PCA. The chromatographic analyses of GSH and GSSG (oxidized glutathione) were performed.
(§4) The second group of animals was treated with the test drug (600 mg/kg i.p.) two hours after DCP administration. The third and fourth groups were treated with N-acetyl-cysteine (NAC) (250 mg/kg i.p.) and, respectively, with glutathione (Tationil^R) (600 mg/kg i.p.).
An evaluation of the protective action of the test drug in respect of glutathione involvement in hepatic protection mechanisms was thus possible.

DCP toxicity in the rat = experiment: Test No. 4: dichloropropane (DCP) intoxication in vivo, death rate and signs; parameters: key to animal 4, symbol in GSH table: --: dead; settings: DCP + 250 mg/kg i.p.
Protocol: as §1, §2, §3, §4

SMILES | GSH Content (hepatic GSH [1]) | normalization of hepatic GSH (in words) (hepatic GSH [2]) | animal 4, symbol in GSH table (DCP toxicity in the rat) | GSH, average values (hepatic GSH [2]; liver, DCP 2 ml/kg per os + 250 mg/kg i.p.) | GSH, individual animals (hepatic GSH [2]; liver, DCP 2 ml/kg per os + 250 mg/kg i.p., animals 1-3, 250 mg/kg)
N[C@@H](CS)C(=O)O [CIS, L-cysteine, reference compound] | 2.7 ± 0.3 |  |  |  | 
N[C@@H](CCC(=O)N[C@@H](CS)C(=O)NCC(=O)O)C(=O)O [GSH, glutathione] | 3.5 ± 0.6 | could not normalize the values of hepatic GSH |  |  | 
CC(=O)N[C@@H](CS)C(=O)O [NAC, N-acetyl-L-cysteine, reference compound] |  | could not normalize the values of hepatic GSH | -- | 2.4 nmol/mg protein | 2.0 nmol/mg protein and 2.9 nmol/mg protein and 2.3 nmol/mg protein
O=C1CC[C@@H](C(=O)O)N1 [O-PRO, 5-oxy-L-proline, reference compound] | 3.4 ± 0.3 |  |  |  | 
